Tests used:
Carbonic anhydrase 12 [1] = target: T1, Carbonic anhydrase 12 (Homo sapiens, UniProt O43570); experiment: (§1) Inhibition of human recombinant carbonic anhydrase 12 preincubated for 15 mins at room temperature/6 hrs at 4 deg C by stopped-flow CO2 hydration assay; conditions: 25 °C
Carbonic anhydrase 1 [2] = target: T2, Carbonic anhydrase 1 (Homo sapiens, UniProt P00915); experiment: Inhibition of human recombinant carbonic anhydrase 1
Carbonic anhydrase 12 [3] = target: T1, Carbonic anhydrase 12; experiment: ChEBML_1523544; conditions: 25 °C; protocol: as §1
Carbonic anhydrase 2 [4] = target: T3, Carbonic anhydrase 2 (Homo sapiens, UniProt P00918); experiment: (§2) Inhibition of human recombinant carbonic anhydrase 2 preincubated for 15 mins at room temperature/6 hrs at 4 deg C by stopped-flow CO2 hydration assay; conditions: 25 °C
Carbonic anhydrase 1 [5] = target: T2, Carbonic anhydrase 1; experiment: ChEBML_1523540; conditions: 25 °C
Protocol: Inhibition of human recombinant carbonic anhydrase 1 preincubated for 15 mins at room temperature/6 hrs at 4 deg C by stopped-flow CO2 hydration assay

Carbonic anhydrase 2 [6] = target: T3, Carbonic anhydrase 2; experiment: ChEBML_1523541; conditions: 25 °C; protocol: as §2

T1 sequence (O43570 whole entry): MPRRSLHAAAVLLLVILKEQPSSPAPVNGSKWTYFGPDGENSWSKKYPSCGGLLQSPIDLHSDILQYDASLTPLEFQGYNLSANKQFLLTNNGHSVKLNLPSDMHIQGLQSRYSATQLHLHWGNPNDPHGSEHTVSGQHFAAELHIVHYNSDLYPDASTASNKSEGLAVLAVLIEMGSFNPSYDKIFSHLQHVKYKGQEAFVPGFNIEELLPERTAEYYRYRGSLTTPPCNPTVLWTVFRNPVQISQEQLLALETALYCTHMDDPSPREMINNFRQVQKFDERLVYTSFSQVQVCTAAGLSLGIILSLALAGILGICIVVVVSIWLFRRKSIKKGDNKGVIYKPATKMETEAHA
T2 sequence (P00915 whole entry): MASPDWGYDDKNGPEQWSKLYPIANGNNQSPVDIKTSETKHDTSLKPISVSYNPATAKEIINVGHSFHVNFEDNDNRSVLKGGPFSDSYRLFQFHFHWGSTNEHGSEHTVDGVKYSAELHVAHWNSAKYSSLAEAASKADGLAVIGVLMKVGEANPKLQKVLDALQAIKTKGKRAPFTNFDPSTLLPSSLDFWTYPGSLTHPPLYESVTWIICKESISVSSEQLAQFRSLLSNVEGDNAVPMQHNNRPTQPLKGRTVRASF

O=c1cc(O)cc2oc(-c3ccc(O)c(O)c3)c(O[C@@H]3O[C@H](CO)[C@@H](O)[C@H](O)[C@H]3O)c(O)c1-2 [Quercetin 3-O-beta-D-glucoside]
Ki (Carbonic anhydrase 12 [1]): 0.052 µM | Ki (Carbonic anhydrase 1 [2]): > 10 µM | Ki (Carbonic anhydrase 12 [3]): 0.0521 µM | Ki (Carbonic anhydrase 2 [4]): 6.21 µM | Ki (Carbonic anhydrase 1 [5]): > 10 µM | Ki (Carbonic anhydrase 2 [6]): 6.21 µM
